Results reported in paper PMC11249646, “Small-Molecule Disruptors of the Interaction between Calcium- and Integrin-Binding Protein 1 and Integrin αIIbβ3 as Novel Antiplatelet Agents” (ACS Pharmacology & Translational Science, 2024).
Like-named read-outs stand apart in the source and are kept apart here.

Assays:
[1] = target: T1, GST-CIB1 : F-scrambled peptide (Homo sapiens, UniProt Q99828); assay: FP scrambled-peptide counter screen, 1536-well format; type: binding; conditions: for Curve Class (counterscreen) / COUNTERSCREEN Curve Class: qHTS curve class; for IC50: read-out: IC50 [μM] (counterscreen)
T1 construct: made in house; host or cells: BL-21 plus RIL cells (E. coli)
T1 sequence (Q99828 1-191): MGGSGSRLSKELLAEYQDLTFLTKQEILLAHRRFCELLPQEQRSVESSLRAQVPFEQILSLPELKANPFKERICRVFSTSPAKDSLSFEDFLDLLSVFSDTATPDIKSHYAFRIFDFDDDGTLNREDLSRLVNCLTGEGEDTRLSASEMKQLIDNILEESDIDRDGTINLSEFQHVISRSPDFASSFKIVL

[2] = target: T2, CIB1 and αIIb interaction (CIB1-GST : F-αIIb peptide) (Homo sapiens, UniProt Q99828); assay: FP assay, 1536-well qHTS format (primary and confirmatory screen); type: binding; conditions: for Curve Class (confirmatory screen) / CONFIRMATORY SCREEN Curve Class: qHTS curve class
T2 construct: made in house; host or cells: BL-21 plus RIL cells (E. coli)
T2 sequence (Q99828 1-191): T1 sequence (Q99828 1-191)

[3] = counterscreen, negative sign = inhibitory curve
[4] = confirmatory screen, negative sign = inhibitory curve
[5] = confirmatory screen, read-out: IC50 [μM] (confirmatory screen)
[6] = qHTS FP screen hits, Table S2, negative = inhibition
[7] = qHTS FP screen hits, Table S2, one class per curve where COUNT > 1, negative sign = inhibitory curve
[8] = qHTS FP screen hits, Table S2, read-out: IC50
[9] = Table S3, counterscreen, a negative sign marks inhibitory curves
[10] = Table S3, counterscreen, negative = inhibition
[11] = Table S3, confirmatory screen, YES/NO call
[12] = Table S3, confirmatory screen, a negative sign marks inhibitory curves
[13] = Table S3, confirmatory screen, negative = inhibition
[14] = Table S3, confirmatory screen, read-out: IC50 [μM] (confirmatory screen)
[15] = qHTS primary screen hits, Table S2, negative = inhibition
[16] = qHTS primary screen hits, Table S2, negative sign = inhibitory curve, several classes where COUNT > 1
[17] = qHTS primary screen hits, Table S2, read-out: IC50
[18] = scrambled-peptide counterscreen

| Structure (SMILES) | Efficacy (%) (counterscreen) ([1]; counterscreen) | Curve Class (counterscreen) [1, 3] | IC50 ([1]; counterscreen) [µM] | Efficacy (%) (confirmatory screen) ([2]; confirmatory screen) | Confirm? (confirmatory screen) ([2]; confirmatory screen, YES/NO) | Curve Class (confirmatory screen) [2, 4] | IC50 [2, 5] [µM] | Efficacy (%) [2, 6] [%] | Curve Class [2, 7] | IC50 [2, 8] [µM] | Efficacy (%) (counterscreen) [1, 10] | IC50 ([1]; Table S3, counterscreen) [µM] | Curve Class (confirmatory screen) [2, 12] | Efficacy (%) (confirmatory screen) [2, 13] | Efficacy (%) [2, 15] [%] | Curve Class [2, 16] | IC50 [2, 17] [µM] | also measured |
| --- | --- | --- | --- | --- | --- | --- | --- | --- | --- | --- | --- | --- | --- | --- | --- | --- | --- | --- |
| CCOC(=O)c1nn(-c2ccc(OC)cc2)c(=O)c2c(N)scc12 [NCGC00053250-03] | -59 | -2.2 | 20 | -69 | YES | -2.4 | 70.8 | -56 | -1.2 | 39.8 | – | – | – | – | – | – | – | – |
| COP(=S)(OC)SCN1C(=O)c2ccccc2C1=O [NCGC00080392-05] | -33 | -2.4 | 44.7 | -50 | YES | -2.2 | 50.1 | -50 | -1.2 | 17.8 | – | – | – | – | – | – | – | – |
| O=C(O)c1cc(/N=N/c2ccc(S(=O)(=O)Nc3ccccn3)cc2)ccc1O [NCGC00090903-09] | – | – | – | – | – | – | – | – | – | – | -61 | 39.8 | -1.2 | -64 | – | – | – | Curve Class (counterscreen) [1, 9]: -2.2; Confirm? (confirmatory screen) [2, 11]: YES; IC50 [2, 14]: 22.4 µM |
| CC(=O)[O][Hg][c]1ccccc1 [NCGC00091050-09] | – | – | – | – | – | – | – | – | – | – | 145 | – | 4 | 41 | -59 | -1.2 | 7.9 | Curve Class (counterscreen) [1, 9]: 2.3 |
| COc1cc([C@H]2Oc3cc([C@H]4Oc5cc(O)cc(O)c5C(=O)[C@@H]4O)ccc3O[C@@H]2CO)ccc1O [NCGC00091057-05] | – | – | – | – | – | – | – | – | – | – | – | – | – | – | – | – | – | COUNTERSCREEN Efficacy (%) ([1]; counterscreen): 0%; COUNTERSCREEN Curve Class ([1]; counterscreen): 4; CONFIRMATORY SCREEN Efficacy (%) ([2]; confirmatory screen): -30%; CONFIRMATORY SCREEN Curve Class ([2]; confirmatory screen): 4 |
| Nc1ccc(O)c([N+](=O)[O-])c1 [NCGC00091261-03] | -105 | -2.1 | 63.1 | -127 | YES | -1.1 | 50.1 | -59 | -2.2 | 113 | – | – | – | – | – | – | – | – |
| Oc1ccc(Cl)cc1Cc1cc(Cl)ccc1O [NCGC00091325-09] | -38 | -1.2 | 10 | -77 | YES | -2.2 | 44.7 | -86 | -2.2 | 79.4 | – | – | – | – | – | – | – | – |
| CN(C)C(=S)SSC(=S)N(C)C [NCGC00091563-12] | – | – | – | – | – | – | – | -71 | -2.2 | – | – | – | – | – | – | – | – | COUNTERSCREEN Efficacy (%) [1, 18]: 14%; COUNTERSCREEN Confirm? ([1]; scrambled-peptide counterscreen, YES/NO call): YES; COUNTERSCREEN Curve Class [1, 18]: 4; IC50 ([2]; IC50 [μM]): 39.8 µM; CONFIRMATORY SCREEN Confirm? ([2]; confirmatory screen, YES/NO call): YES; CONFIRMATORY SCREEN Curve Class [2, 4]: -1.2; CONFIRMATORY SCREEN Efficacy (%) ([2]; confirmatory screen, negative = inhibition): -67%; IC50 ([2]; confirmatory screen, read-out: CONFIRMATORY SCREEN IC50): 7.1 µM |
| CCCC(=O)c1cc(O)c(O)cc1O [NCGC00091839-03] | -107 | -1.1 | 31.6 | -145 | YES | -1.1 | 35.5 | -92 | – | 105 | – | – | – | – | – | – | – | – |
| CCOC(=O)CC(SP(=S)(OC)OC)C(=O)OCC (stereo not shown) [NCGC00091902-08] | -27 | -1.4 | 20 | -93 | YES | -2.2 | 100 | -52 | -2.2 | 119 | – | – | – | – | – | – | – | Confirm? (counterscreen) ([1]; counterscreen, YES/NO): YES |
| NC(=O)c1ncn([C@@H]2O[C@H](CO)[C@@H](O)[C@H]2O)c1O [NCGC00094087-05] | – | – | – | – | – | – | – | – | – | – | – | – | – | – | -52 | -1.2 | 20 | COUNTERSCREEN Efficacy (%) ([1]; counterscreen): 0%; COUNTERSCREEN Curve Class ([1]; counterscreen): 4; CONFIRMATORY SCREEN Efficacy (%) ([2]; confirmatory screen): -5.43%; CONFIRMATORY SCREEN Curve Class ([2]; confirmatory screen): 4 |
| C[C@H](Cc1ccc(O)c(O)c1)[C@@H](C)Cc1ccc(O)c(O)c1 [NCGC00094201-01] | -68 | -1.2 | 12.6 | -95 | YES | -2.2 | 39.8 | – | – | – | – | – | – | – | -32 | -2.4 | 27.1 | – |
| NC[C@@H](O)c1ccc(O)c(O)c1.O=C(O)C(O)C(O)C(=O)O [NCGC00094737-04] | 82 | 3 | 100 | -31 | YES | -3 | 44.7 | – | – | – | – | – | – | – | – | – | – | Confirm? (counterscreen) ([1]; counterscreen, YES/NO): YES |
| O=C1c2ccccc2C(=O)c2c1ccc(O)c2O [NCGC00095227-06] | – | – | – | – | – | – | – | -161 | -2.1 | 35.5 | -195 | 22.4 | -1.1 | -175 | – | – | – | Curve Class (counterscreen) [1, 9]: -2.1; Confirm? (confirmatory screen) [2, 11]: YES; IC50 [2, 14]: 17.8 µM |
| Cc1coc2c1C(=O)C(=O)c1c-2ccc2c1CCCC2(C)C [NCGC00095709-08] | – | – | – | – | – | – | – | -65 | -2.2 | 79.4 | -67 | 39.8 | -1.2 | -67 | – | – | – | Curve Class (counterscreen) [1, 9]: -2.2; Confirm? (confirmatory screen) [2, 11]: YES; IC50 [2, 14]: 39.8 µM |
| CC(O)C(=O)O.CCOc1ccc2nc3cc(N)ccc3c(N)c2c1.O [NCGC00096056-02] | – | – | – | – | – | – | – | – | – | – | -204 | 31.6 | -2.1 | -162 | -129 | -2.1 | 44.7 | Curve Class (counterscreen) [1, 9]: -2.1; Confirm? (confirmatory screen) [2, 11]: YES; IC50 [2, 14]: 25.1 µM |
| O=C1OC(c2ccc(O)c(S(=O)(=O)[O-])c2)(c2ccc(O)c(S(=O)(=O)[O-])c2)c2c(Br)c(Br)c(Br)c(Br)c21.[Na+].[Na+] [NCGC00159391-03] | – | – | – | – | – | – | – | – | – | – | 31 | 50.1 | 4 | -20 | -32 | -1.4 | 15.8 | – |
| O=C([O-])c1c(Cl)c(Cl)c(Cl)c(Cl)c1-c1c2cc(I)c(=O)c(I)c-2oc2c(I)c(O)c(I)cc12.[Na+] [NCGC00159508-05] | – | – | – | – | – | – | – | – | – | – | 311 | 44.7 | – | 261 | -26 | -2.4 | 13.6 | – |
| OCc1ccc(-c2ccc(-c3ccc(CO)s3)o2)s1 [NCGC00159570-01] | – | – | – | – | – | – | – | – | – | – | 97 | 50.1 | 2.4 | 58 | -57 | -3 | 34.1 | – |
| CC(C)Oc1cccc(NC(=O)c2ccccc2C(F)(F)F)c1 [NCGC00160537-04] | – | – | – | – | – | – | – | – | – | – | -39 | 39.8 | – | – | – | – | 100 | Confirm? (counterscreen) ([1]; Table S3, counterscreen, YES/NO call): YES |
| O=[N+]([O-])c1ccc(O)c2ncccc12 [NCGC00160664-03] | – | – | – | – | – | – | – | – | – | – | – | – | – | – | -25 | -1.4 | 31.6 | COUNTERSCREEN Efficacy (%) ([1]; counterscreen): -13%; COUNTERSCREEN Curve Class ([1]; counterscreen): 4; CONFIRMATORY SCREEN Efficacy (%) ([2]; confirmatory screen): 0%; CONFIRMATORY SCREEN Curve Class ([2]; confirmatory screen): 4 |
| COc1cccc2nc(-c3cccs3)nc(NN3C(=O)C=C(C)C3=O)c12 [NCGC00161703-02] | -30 | -1.4 | 17.8 | -63 | YES | -1.4 | 8.9 | – | – | – | – | – | – | – | -24 | – | 3 | Curve Class ([2]; qHTS primary screen hits, Table S2, negative sign = inhibitory curve): -1.4 |
